The values below come from US20260374782A1, “NEW COMPOUNDS, PROCESSES FOR PREPARING THE SAME AND THEIR USE AS DRUGS” (B&A ONCOMEDICAL, priority 2022, published 2026).

Molecules are shown by their SMILES.

The target of this test is T1, NKCC1 (Homo sapiens, UniProt P55011).
T1 construct: endogenous in cells; host or cells: native HEK293 cells
T1 sequence (P55011 1-1212): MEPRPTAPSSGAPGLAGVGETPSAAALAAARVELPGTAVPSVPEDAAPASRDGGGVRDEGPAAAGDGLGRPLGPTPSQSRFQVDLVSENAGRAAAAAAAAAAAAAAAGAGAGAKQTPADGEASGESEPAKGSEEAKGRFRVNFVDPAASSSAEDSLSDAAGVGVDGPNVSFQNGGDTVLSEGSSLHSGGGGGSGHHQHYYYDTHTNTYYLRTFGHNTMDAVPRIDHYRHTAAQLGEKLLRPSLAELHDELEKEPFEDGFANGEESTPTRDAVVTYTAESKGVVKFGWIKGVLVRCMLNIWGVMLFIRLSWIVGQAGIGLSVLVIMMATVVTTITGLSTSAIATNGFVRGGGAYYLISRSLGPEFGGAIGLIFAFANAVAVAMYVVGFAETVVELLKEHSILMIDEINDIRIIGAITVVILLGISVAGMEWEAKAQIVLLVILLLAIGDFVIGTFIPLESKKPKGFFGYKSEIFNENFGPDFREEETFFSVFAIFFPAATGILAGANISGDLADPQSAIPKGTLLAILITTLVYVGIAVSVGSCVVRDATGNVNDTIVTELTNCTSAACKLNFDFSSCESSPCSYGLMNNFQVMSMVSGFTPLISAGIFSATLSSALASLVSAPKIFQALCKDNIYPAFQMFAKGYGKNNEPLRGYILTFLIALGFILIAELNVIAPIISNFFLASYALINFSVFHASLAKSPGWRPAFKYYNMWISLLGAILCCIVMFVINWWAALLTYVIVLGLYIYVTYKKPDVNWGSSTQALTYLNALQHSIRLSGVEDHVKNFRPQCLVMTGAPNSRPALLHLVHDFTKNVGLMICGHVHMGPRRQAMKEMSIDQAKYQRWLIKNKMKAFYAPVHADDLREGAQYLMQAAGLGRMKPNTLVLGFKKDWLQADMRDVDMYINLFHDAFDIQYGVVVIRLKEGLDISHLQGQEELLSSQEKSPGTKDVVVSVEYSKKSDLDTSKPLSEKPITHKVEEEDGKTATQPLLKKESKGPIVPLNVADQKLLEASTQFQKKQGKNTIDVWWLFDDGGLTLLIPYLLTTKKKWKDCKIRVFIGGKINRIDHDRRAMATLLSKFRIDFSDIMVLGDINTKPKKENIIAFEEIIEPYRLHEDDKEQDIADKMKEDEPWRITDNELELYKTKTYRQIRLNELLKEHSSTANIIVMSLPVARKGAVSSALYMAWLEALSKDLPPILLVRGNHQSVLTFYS
The experiment in a line: NKCC1-mediated K+ influx (83Rb tracer uptake) in native HEK293 cells, hypertonic saline, 100 μM ouabain. It is filed as cell-based. Particulars: HEK293, no drug = 1000, 20 μM bumetanide = 0; for inhibition at 2 µM: read-out: NKCC1 mediated flux inhibition at 2 μM (%); for inhibition at 20 µM: read-out: NKCC1 mediated flux inhibition at 20 μM (%). The procedure, abridged:
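Native cells in slightly hypertonic saline with 100 μM ouabain; 15 min preincubation then 15 min 83Rb uptake (0.25 μCi/mL), scintillation counting normalized to protein. Compounds at 2 μM and 20 μM; flux scaled 1000 (no drug) to 0 (20 μM bumetanide), triplicate dishes.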

With `CCCCNc1cc(C(=O)O)cc(S(=N)(=O)NC)c1Oc1ccccc1` (stereo not shown) [Compound 51, 3-(butylamino)-5-(methylaminosulfonimidoyl)-4-phenoxy-benzoic acid], the inhibition at 2 µM was in the range of 50 to 75% and the inhibition at 20 µM is ≥ 75%.

For `CCCCNc1cc(C(=O)O)cc(S(=N)(=O)Nc2ccccc2)c1Oc1ccccc1` (stereo not shown) [Compound 57, 3-(anilinosulfonimidoyl)-5-(butylamino)-4-phenoxy-benzoic acid], the inhibition at 2 µM is 50 to 75% and the inhibition at 20 µM was ≥ 75%.

The term inhibition denotes the change of the read-out against control, counted positive when it falls.
